From article doi:10.1101/2020.06.11.145995v1 (biorxiv, 2020)
Like-named read-outs stand apart in the source and are kept apart here. Each block holds one compound with its values, some of them ahead of it.

Assays:
Assay in all cases: biochemical
MYLK = MYLK (Homo sapiens, UniProt Q15746)
DAPK2 = DAPK2 (Homo sapiens, UniProt Q9UIK4)
MELK = MELK (Homo sapiens, UniProt Q14680)
BIKE = BIKE (Homo sapiens, UniProt Q9NSY1)
ACVR1B = ACVR1B (Homo sapiens, UniProt P36896)
MARK1 = MARK1 (Homo sapiens, UniProt Q9P0L2)
CDK3 = CDK3 (Homo sapiens, UniProt Q00526)
CDK3, sequence (Q00526 whole entry): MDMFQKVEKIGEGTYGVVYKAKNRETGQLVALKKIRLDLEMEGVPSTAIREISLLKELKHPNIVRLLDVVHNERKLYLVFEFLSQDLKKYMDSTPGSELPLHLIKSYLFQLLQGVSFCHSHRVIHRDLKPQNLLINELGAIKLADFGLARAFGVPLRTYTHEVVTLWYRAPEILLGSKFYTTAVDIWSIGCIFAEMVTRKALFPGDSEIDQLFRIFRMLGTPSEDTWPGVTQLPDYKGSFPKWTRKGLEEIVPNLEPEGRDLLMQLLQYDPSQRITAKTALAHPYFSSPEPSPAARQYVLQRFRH

FGFR2 = FGFR2 (Homo sapiens, UniProt P21802)
CHEK1 = CHEK1 (Homo sapiens, UniProt O14757)
ADCK3 = ADCK3 (Homo sapiens, UniProt Q8NI60)
ADCK3, sequence (Q8NI60 whole entry): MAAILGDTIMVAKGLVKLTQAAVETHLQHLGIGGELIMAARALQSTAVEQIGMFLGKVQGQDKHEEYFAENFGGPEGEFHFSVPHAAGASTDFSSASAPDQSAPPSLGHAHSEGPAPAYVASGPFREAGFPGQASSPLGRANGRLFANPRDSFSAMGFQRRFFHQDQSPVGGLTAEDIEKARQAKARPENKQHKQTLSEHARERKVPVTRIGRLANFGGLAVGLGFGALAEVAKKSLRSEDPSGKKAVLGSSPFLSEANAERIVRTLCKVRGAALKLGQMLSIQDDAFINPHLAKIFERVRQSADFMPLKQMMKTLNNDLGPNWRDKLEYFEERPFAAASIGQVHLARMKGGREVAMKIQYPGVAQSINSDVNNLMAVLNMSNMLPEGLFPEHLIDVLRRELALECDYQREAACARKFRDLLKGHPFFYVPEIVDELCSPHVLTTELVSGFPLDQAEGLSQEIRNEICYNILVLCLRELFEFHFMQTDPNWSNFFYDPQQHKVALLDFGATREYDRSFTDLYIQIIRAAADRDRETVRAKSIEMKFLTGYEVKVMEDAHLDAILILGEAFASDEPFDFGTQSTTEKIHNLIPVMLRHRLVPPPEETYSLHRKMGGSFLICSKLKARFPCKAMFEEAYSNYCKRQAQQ

MYLK4 = MYLK4 (Homo sapiens, UniProt Q86YV6)
CSNK2A1 = CSNK2A1 (Homo sapiens, UniProt P68400)
CAMKK1 = CAMKK1 (Homo sapiens, UniProt Q8N5S9)
CAMKK1, sequence (Q8N5S9 whole entry): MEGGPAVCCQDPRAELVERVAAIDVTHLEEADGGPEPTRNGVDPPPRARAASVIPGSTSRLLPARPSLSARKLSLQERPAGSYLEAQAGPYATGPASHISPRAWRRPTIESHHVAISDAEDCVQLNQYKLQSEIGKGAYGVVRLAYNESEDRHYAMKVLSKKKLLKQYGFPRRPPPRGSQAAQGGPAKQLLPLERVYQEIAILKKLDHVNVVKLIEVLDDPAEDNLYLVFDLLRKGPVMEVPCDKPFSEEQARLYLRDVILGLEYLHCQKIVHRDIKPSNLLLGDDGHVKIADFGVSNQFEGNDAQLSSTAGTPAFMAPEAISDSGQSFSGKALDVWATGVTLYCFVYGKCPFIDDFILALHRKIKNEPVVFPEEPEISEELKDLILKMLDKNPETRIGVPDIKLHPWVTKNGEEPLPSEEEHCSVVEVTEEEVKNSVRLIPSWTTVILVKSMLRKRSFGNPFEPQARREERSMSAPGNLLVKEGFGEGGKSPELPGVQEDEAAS

ABL2 = ABL2 (Homo sapiens, UniProt P42684)
ABL2, sequence (P42684 whole entry): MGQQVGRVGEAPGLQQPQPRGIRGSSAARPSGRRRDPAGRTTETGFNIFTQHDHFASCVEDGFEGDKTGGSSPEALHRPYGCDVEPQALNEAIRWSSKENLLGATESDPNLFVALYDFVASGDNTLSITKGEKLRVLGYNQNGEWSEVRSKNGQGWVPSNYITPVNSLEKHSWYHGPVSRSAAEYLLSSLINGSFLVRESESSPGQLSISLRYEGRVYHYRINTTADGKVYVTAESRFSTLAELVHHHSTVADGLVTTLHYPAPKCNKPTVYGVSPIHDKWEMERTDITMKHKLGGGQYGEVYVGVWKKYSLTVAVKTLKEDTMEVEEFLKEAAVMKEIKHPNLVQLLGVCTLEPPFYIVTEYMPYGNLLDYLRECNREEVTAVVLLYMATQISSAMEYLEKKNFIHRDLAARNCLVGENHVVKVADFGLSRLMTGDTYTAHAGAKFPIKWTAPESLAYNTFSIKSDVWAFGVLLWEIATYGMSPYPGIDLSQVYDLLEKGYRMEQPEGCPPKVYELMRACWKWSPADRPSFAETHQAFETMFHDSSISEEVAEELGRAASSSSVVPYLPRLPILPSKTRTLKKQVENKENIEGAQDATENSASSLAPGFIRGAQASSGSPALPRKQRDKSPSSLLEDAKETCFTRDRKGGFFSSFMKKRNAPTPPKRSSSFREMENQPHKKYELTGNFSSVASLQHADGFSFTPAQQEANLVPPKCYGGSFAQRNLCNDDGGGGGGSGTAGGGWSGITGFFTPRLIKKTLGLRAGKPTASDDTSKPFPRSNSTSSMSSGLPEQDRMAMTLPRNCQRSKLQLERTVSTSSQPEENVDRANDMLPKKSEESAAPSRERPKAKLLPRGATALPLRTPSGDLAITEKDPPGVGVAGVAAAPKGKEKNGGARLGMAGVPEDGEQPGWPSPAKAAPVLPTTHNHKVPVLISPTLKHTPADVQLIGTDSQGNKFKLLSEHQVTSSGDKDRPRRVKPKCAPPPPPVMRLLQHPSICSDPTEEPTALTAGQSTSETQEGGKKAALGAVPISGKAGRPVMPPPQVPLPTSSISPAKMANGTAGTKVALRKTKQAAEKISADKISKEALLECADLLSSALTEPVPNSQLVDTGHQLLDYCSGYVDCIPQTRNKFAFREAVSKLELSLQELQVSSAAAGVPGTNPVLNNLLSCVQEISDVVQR

ITK = ITK (Homo sapiens, UniProt Q08881)
HIPK2 = HIPK2 (Homo sapiens, UniProt Q9H2X6)
CDK7 = CDK7 (Homo sapiens, UniProt P50613)
FLT4 = FLT4 (Homo sapiens, UniProt P35916)
MET(Y1235D) = MET(Y1235D) (Homo sapiens, UniProt P08581, Y1235D)
LKB1 = LKB1 (Homo sapiens, UniProt Q15831)
CTK = CTK (Homo sapiens, UniProt P42679)
CTK, sequence (P42679 whole entry): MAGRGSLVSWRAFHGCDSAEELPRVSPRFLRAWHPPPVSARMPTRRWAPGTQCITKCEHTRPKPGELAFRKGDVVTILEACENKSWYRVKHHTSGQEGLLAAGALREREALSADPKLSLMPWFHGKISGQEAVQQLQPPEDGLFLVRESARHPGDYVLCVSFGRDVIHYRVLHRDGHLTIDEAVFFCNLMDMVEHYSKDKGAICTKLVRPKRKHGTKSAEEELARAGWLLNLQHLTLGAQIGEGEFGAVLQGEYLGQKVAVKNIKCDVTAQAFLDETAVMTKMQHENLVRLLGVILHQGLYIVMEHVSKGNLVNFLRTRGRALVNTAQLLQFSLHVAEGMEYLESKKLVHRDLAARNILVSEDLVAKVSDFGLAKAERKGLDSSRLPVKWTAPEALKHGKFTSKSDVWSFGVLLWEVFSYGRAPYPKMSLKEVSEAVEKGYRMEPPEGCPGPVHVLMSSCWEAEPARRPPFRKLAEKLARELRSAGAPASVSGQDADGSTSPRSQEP

CAMK4 = CAMK4 (Homo sapiens, UniProt Q16566)
CAMK4, sequence (Q16566 whole entry): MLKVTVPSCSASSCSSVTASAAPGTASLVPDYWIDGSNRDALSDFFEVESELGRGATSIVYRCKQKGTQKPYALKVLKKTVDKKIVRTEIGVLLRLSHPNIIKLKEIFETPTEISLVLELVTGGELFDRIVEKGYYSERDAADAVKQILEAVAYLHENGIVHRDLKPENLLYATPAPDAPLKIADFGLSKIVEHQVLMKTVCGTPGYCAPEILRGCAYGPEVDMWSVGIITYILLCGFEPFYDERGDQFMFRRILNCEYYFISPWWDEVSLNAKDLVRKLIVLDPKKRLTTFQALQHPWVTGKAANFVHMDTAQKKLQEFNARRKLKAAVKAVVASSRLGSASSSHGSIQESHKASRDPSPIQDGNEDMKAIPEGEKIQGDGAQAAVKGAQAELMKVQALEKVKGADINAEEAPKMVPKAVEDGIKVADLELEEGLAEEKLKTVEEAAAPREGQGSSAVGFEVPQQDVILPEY

INSR = INSR (Homo sapiens, UniProt P06213)
FLT3(N841I) = FLT3(N841I) (Homo sapiens, UniProt P36888, N841I)
MEK1 = MEK1 (Homo sapiens, UniProt Q02750)
CDK4-cyclinD1 = CDK4-cyclinD1 (Homo sapiens, UniProt P11802)
FGFR1 = FGFR1 (Homo sapiens, UniProt P11362)
CLK1 = CLK1 (Homo sapiens, UniProt P49759)
CLK1, sequence (P49759 whole entry): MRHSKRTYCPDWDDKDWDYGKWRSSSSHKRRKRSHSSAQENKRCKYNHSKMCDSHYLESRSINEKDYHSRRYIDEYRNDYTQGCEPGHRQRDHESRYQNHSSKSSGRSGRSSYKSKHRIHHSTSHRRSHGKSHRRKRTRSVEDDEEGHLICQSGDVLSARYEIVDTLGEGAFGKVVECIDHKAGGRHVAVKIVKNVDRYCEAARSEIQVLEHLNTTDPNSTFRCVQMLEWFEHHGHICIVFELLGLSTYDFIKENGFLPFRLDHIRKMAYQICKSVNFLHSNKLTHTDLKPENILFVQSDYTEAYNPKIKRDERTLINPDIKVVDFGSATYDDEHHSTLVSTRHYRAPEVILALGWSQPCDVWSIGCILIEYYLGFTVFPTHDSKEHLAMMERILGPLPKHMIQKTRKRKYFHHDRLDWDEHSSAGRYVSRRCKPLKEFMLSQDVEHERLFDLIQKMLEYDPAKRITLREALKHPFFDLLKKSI

ERN1 = ERN1 (Homo sapiens, UniProt O75460)
CAMKK2 = CAMKK2 (Homo sapiens, UniProt Q96RR4)
CAMKK2, sequence (Q96RR4 whole entry): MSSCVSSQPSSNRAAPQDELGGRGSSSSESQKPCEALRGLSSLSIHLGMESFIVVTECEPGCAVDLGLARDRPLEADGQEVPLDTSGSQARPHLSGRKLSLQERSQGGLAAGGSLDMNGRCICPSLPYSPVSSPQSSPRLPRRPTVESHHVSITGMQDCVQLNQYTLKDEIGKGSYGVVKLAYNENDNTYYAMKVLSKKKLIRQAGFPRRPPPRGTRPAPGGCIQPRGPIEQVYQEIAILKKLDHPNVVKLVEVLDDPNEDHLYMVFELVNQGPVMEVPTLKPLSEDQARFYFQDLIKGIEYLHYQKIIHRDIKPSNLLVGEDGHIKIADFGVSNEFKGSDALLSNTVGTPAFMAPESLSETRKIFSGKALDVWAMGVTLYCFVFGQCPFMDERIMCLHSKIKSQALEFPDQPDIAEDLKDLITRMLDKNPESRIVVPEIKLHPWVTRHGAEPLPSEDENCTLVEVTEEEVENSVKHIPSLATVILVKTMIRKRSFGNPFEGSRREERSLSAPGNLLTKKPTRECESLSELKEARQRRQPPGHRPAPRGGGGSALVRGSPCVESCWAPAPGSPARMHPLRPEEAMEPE

[1] = read-out: CPT-1-70-1 (1uM) % control
[2] = read-out: HYJ-2-002-1 (1uM) % control

SMILES: CN1CCN(c2ccc(Nc3nc(Oc4ccc(NC(=O)CCl)cc4)c4cc[nH]c4n3)cc2)CC1 [CPT1-70-1]
remaining activity at 1 µM (MYLK; [1]): 100%
remaining activity at 1 µM (DAPK2; [1]): 88%
remaining activity at 1 µM (MELK; [1]): 16%
remaining activity at 1 µM (BIKE; [1]): 18%
remaining activity at 1 µM (ACVR1B; [1]): 100%
remaining activity at 1 µM (MARK1; [1]): 2.1%
remaining activity at 1 µM (CDK3; [1]): 100%
remaining activity at 1 µM (FGFR2; [1]): 22%
remaining activity at 1 µM (CHEK1; [1]): 92%
remaining activity at 1 µM (ADCK3; [1]): 100%
remaining activity at 1 µM (MYLK4; [1]): 92%
remaining activity at 1 µM (CSNK2A1; [1]): 35%
remaining activity at 1 µM (CAMKK1; [1]): 84%
remaining activity at 1 µM (ABL2; [1]): 60%
remaining activity at 1 µM (ITK; [1]): 0.85%
remaining activity at 1 µM (HIPK2; [1]): 90%
remaining activity at 1 µM (CDK7; [1]): 100%
remaining activity at 1 µM (FLT4; [1]): 81%
remaining activity at 1 µM (MET(Y1235D); [1]): 23%
remaining activity at 1 µM (LKB1; [1]): 76%
remaining activity at 1 µM (CTK; [1]): 100%
remaining activity at 1 µM (CAMK4; [1]): 100%
remaining activity at 1 µM (INSR; [1]): 17%
remaining activity at 1 µM (FLT3(N841I); [1]): 1.2%
remaining activity at 1 µM (MEK1; [1]): 51%
remaining activity at 1 µM (CDK4-cyclinD1; [1]): 81%
remaining activity at 1 µM (FGFR1; [1]): 2.2%
remaining activity at 1 µM (CLK1; [1]): 5.8%
remaining activity at 1 µM (ERN1; [1]): 69%
remaining activity at 1 µM (CAMKK2; [1]): 68%

remaining activity at 1 µM (MYLK; [2]): 100%
remaining activity at 1 µM (DAPK2; [2]): 92%
remaining activity at 1 µM (MELK; [2]): 48%
remaining activity at 1 µM (BIKE; [2]): 96%
remaining activity at 1 µM (ACVR1B; [2]): 100%
remaining activity at 1 µM (MARK1; [2]): 100%
remaining activity at 1 µM (CDK3; [2]): 99%
remaining activity at 1 µM (FGFR2; [2]): 5.7%
remaining activity at 1 µM (CHEK1; [2]): 100%
remaining activity at 1 µM (ADCK3; [2]): 100%
remaining activity at 1 µM (MYLK4; [2]): 100%
remaining activity at 1 µM (CSNK2A1; [2]): 94%
remaining activity at 1 µM (CAMKK1; [2]): 100%
remaining activity at 1 µM (ABL2; [2]): 0%
remaining activity at 1 µM (ITK; [2]): 75%
remaining activity at 1 µM (HIPK2; [2]): 84%
remaining activity at 1 µM (CDK7; [2]): 44%
remaining activity at 1 µM (FLT4; [2]): 3.8%
remaining activity at 1 µM (MET(Y1235D); [2]): 83%
remaining activity at 1 µM (LKB1; [2]): 100%
remaining activity at 1 µM (CTK; [2]): 91%
remaining activity at 1 µM (CAMK4; [2]): 100%
remaining activity at 1 µM (INSR; [2]): 92%
remaining activity at 1 µM (FLT3(N841I); [2]): 1.5%
remaining activity at 1 µM (MEK1; [2]): 100%
remaining activity at 1 µM (CDK4-cyclinD1; [2]): 80%
remaining activity at 1 µM (FGFR1; [2]): 1.2%
remaining activity at 1 µM (CLK1; [2]): 57%
remaining activity at 1 µM (ERN1; [2]): 100%
remaining activity at 1 µM (CAMKK2; [2]): 100%
SMILES: CCN1CCN(Cc2ccc(NC(=O)c3ccc(C)c(CCc4cnc5[nH]ccc5c4OC)c3)cc2C(F)(F)F)CC1 [HYJ-2-002-1]
